# In paper PMC8286840, “Identifying SARS-CoV-2 antiviral compounds by screening for small molecule inhibitors of Nsp3 papain-like protease” (Biochemical Journal, 2021):
# Counter-ions that a name gives are not always drawn. Like-named read-outs stand apart in the source and are kept apart here.
# Columns and labels:
# [1] = molecular target: T1, SARS-CoV-2 PLpro (nsp3 1564–1878) (Severe acute respiratory syndrome coronavirus 2, UniProt P0DTD1); test: biochemical; parameters: FRET-quenched peptide (Pro3) cleavage by PLpro, 10 min pre-incubation, slope over 20 min, normalised to no-compound control; details: high concentration screen, read-out: % of control remaining
# [2] = molecular target: T1, SARS-CoV-2 PLpro (nsp3 1564–1878); test: biochemical; parameters: FRET-quenched peptide (Pro3) cleavage by PLpro, 10 min pre-incubation, slope over 20 min, normalised to no-compound control; details: low concentration screen, read-out: % of control remaining
smiles,measurement,setting,value
CN(CCOc1ccc(CC2SC(=O)NC2=O)cc1)c1ccccn1 (stereo not drawn) [Rosiglitazone (Avandia)],remaining activity at 3.75 µM,[1]; Well no.=4924,89.9%
same,remaining activity at 1.25 µM,[2]; Well no.=4924,95.4%
O=P1(NCCCl)OCCCN1CCCl (stereo not drawn) [Ifosfamide],remaining activity at 3.75 µM,[1]; Well no.=2220,98.6%
same,remaining activity at 1.25 µM,[2]; Well no.=2220,97.2%
Oc1ccc([C@H]2COc3cc(O)ccc3C2)cc1 [Equol],remaining activity at 3.75 µM,[1]; Well no.=5252,99.3%
same,remaining activity at 1.25 µM,[2]; Well no.=5252,99.7%
COc1c2occc2c(OC)c2c(=O)cc(C)oc12 [Khellin],remaining activity at 3.75 µM,[1]; Well no.=3436,94.1%
same,remaining activity at 1.25 µM,[2]; Well no.=3436,92.2%
O=C(O)c1cn(C2CC2)c2cc(N3CCNCC3)c(F)cc2c1=O [Ciprofloxacin],remaining activity at 3.75 µM,[1]; Well no.=2263,100%
same,remaining activity at 1.25 µM,[2]; Well no.=2263,99%
C[C@H](CCC(=O)NCC(=O)O)[C@H]1CC[C@H]2[C@@H]3[C@H](O)C[C@@H]4C[C@H](O)CC[C@]4(C)[C@H]3CC[C@]12C [Glycochenodeoxycholic acid],remaining activity at 3.75 µM,[1]; Well no.=7020,102%
same,remaining activity at 1.25 µM,[2]; Well no.=7020,105%
same,remaining activity at 1.25 µM,[2]; Well no.=7257,103%
O=c1ccn([C@H]2C[C@H](O)[C@@H](CO)O2)c(=O)[nH]1 [2'-Deoxyuridine],remaining activity at 3.75 µM,[1]; Well no.=6627,102%
same,remaining activity at 3.75 µM,[1]; Well no.=8893,103%
same,remaining activity at 1.25 µM,[2]; Well no.=6627,107%
same,remaining activity at 1.25 µM,[2]; Well no.=8893,103%
CCCn1c(=O)c2[nH]c(-c3ccc(OCC(=O)Nc4ccc(C#N)cc4)cc3)nc2n(CCC)c1=O [MRS 1754],remaining activity at 3.75 µM,[1]; Well no.=788,97.6%
same,remaining activity at 3.75 µM,[1]; Well no.=8407,95.8%
same,remaining activity at 1.25 µM,[2]; Well no.=788,97.4%
same,remaining activity at 1.25 µM,[2]; Well no.=8407,101%
CCCC/C=C\CCCCCCCC(=O)O [9(Z)-Tetradecenoic acid],remaining activity at 3.75 µM,[1]; Well no.=4268,98%
same,remaining activity at 1.25 µM,[2]; Well no.=4268,102%
CC(C)(C)NCC(O)COc1nsnc1N1CCOCC1 (stereo not drawn) [S(-)-Timolol maleate],remaining activity at 3.75 µM,[1]; Well no.=1483,96%
same,remaining activity at 1.25 µM,[2]; Well no.=1483,97.1%
CCCN(CCC)C(=O)C(CCC(=O)O)NC(=O)c1ccccc1 (stereo not drawn) [Proglumide],remaining activity at 3.75 µM,[1]; Well no.=941,100%
same,remaining activity at 1.25 µM,[2]; Well no.=941,104%
Nc1c(Br)cc(Br)cc1CN[C@H]1CC[C@H](O)CC1 [Ambroxol HCl],remaining activity at 3.75 µM,[1]; Well no.=5311,97.1%
same,remaining activity at 1.25 µM,[2]; Well no.=5311,99.4%
COc1ccc(CCN2CCC(Nc3nc4ccccc4n3Cc3ccc(F)cc3)CC2)cc1 [Astemizole],remaining activity at 3.75 µM,[1]; Well no.=2054,102%
same,remaining activity at 1.25 µM,[2]; Well no.=2054,102%
CC(=O)C1=C(C)N(c2cccc(C(F)(F)F)c2)C(=O)N[C@@H]1c1ccc(C#N)nc1 [BAY-678],remaining activity at 3.75 µM,[1]; Well no.=7734,101%
same,remaining activity at 1.25 µM,[2]; Well no.=7734,97.9%
CC(C)CC(=O)NCC(=O)O [N-Isovaleroylglycine],remaining activity at 3.75 µM,[1]; Well no.=6643,122%
same,remaining activity at 1.25 µM,[2]; Well no.=6643,110%
c1ccc([C@H]2CN3CCSC3=N2)cc1 [Levamisole],remaining activity at 3.75 µM,[1]; Well no.=2260,94.2%
same,remaining activity at 1.25 µM,[2]; Well no.=2260,97.8%
CCOC(=O)[C@H](CCc1ccccc1)N[C@H]1CS[C@H](c2cccs2)CN(CC(=O)O)C1=O [Temocapril (hydrochloride)],remaining activity at 3.75 µM,[1]; Well no.=8218,99.9%
same,remaining activity at 1.25 µM,[2]; Well no.=8218,103%
O=C(/C=C/c1ccc(O)c(O)c1)O[C@@H]1C[C@](O)(C(=O)O)C[C@@H](O)[C@H]1O [Chlorogenic acid],remaining activity at 3.75 µM,[1]; Well no.=3510,103%
same,remaining activity at 1.25 µM,[2]; Well no.=3510,103%
CN1[C@@H]2CC(O)C[C@H]1[C@@H]1O[C@@H]12 (stereo partly drawn) [Scopine],remaining activity at 3.75 µM,[1]; Well no.=4910,92.3%
same,remaining activity at 1.25 µM,[2]; Well no.=4910,95.8%
O=c1c(O)c(-c2cc(O)c(O)c(O)c2)oc2cc(O)cc(O)c12 [Myricetin],remaining activity at 3.75 µM,[1]; Well no.=838,102%
same,remaining activity at 3.75 µM,[1]; Well no.=3324,108%
same,remaining activity at 3.75 µM,[1]; Well no.=6244,96.9%
same,remaining activity at 1.25 µM,[2]; Well no.=838,101%
same,remaining activity at 1.25 µM,[2]; Well no.=3324,103%
same,remaining activity at 1.25 µM,[2]; Well no.=6244,96.2%
CC(C)(C)OC(=O)CN(Cc1ccc(Cl)cc1)Cc1ccc([N+](=O)[O-])s1 [GSK4112],remaining activity at 3.75 µM,[1]; Well no.=5910,96%
same,remaining activity at 1.25 µM,[2]; Well no.=5910,97.7%
O=CN1CC/C(=C\c2ccc3c(c2)OCO3)C1=O [KNK437],remaining activity at 3.75 µM,[1]; Well no.=8768,89.6%
same,remaining activity at 1.25 µM,[2]; Well no.=8768,92.1%
COc1cccc(-c2cc(F)ccc2C2Cc3nc(N)nc(C)c3C(=O)N2)n1 (stereo not drawn) [HSP990 (NVP-HSP990)],remaining activity at 3.75 µM,[1]; Well no.=8934,100%
same,remaining activity at 1.25 µM,[2]; Well no.=8934,93.5%
CO[C@H]1CC[C@@H](C(=O)c2ccc3nc4c(cc3c2)CCCO4)CC1 [JNJ16259685],remaining activity at 3.75 µM,[1]; Well no.=6955,102%
same,remaining activity at 1.25 µM,[2]; Well no.=6955,100%
"CC(N)[C@H](O)c1ccc(O)c(O)c1 (single isomer, unassigned; (-)) [(-)-alpha-Methylnorepinephrine]",remaining activity at 3.75 µM,[1]; Well no.=547,103%
same,remaining activity at 1.25 µM,[2]; Well no.=547,102%
CN(C)[C@@H]1C(O)=C(C(N)=O)C(=O)[C@@]2(O)C(O)=C3C(=O)c4c(O)cccc4[C@@](C)(O)[C@H]3C[C@@H]12 [Tetracycline],remaining activity at 3.75 µM,[1]; Well no.=1948,93.7%
same,remaining activity at 1.25 µM,[2]; Well no.=1948,95.4%
COCc1nnc(N2CC(Oc3ccc(F)cc3Cl)C2)n1-c1ccc(OC)nc1 [PF-3274167],remaining activity at 3.75 µM,[1]; Well no.=7285,97.3%
same,remaining activity at 1.25 µM,[2]; Well no.=7285,99.6%
CCCCC/C=C\C=C\[C@H](CCCCCCCC(=O)O)OO [9(S)-HPODE],remaining activity at 3.75 µM,[1]; Well no.=4386,98%
same,remaining activity at 1.25 µM,[2]; Well no.=4386,97.7%
C=CCc1ccc(O)c(-c2ccc(O)c(CC=C)c2)c1 [Honokiol],remaining activity at 3.75 µM,[1]; Well no.=3621,93.8%
same,remaining activity at 1.25 µM,[2]; Well no.=3621,97.6%
C[C@H](CCC(=O)NCCS(=O)(=O)O)[C@H]1CC[C@H]2[C@@H]3[C@@H](O)C[C@@H]4C[C@H](O)CC[C@]4(C)[C@H]3CC[C@]12C [Tauroursodeoxycholate (Sodium)],remaining activity at 3.75 µM,[1]; Well no.=6310,104%
same,remaining activity at 1.25 µM,[2]; Well no.=6310,102%
"CCC(CC)CC1(C(=O)Nc2ccccc2SC(=O)C(C)C)CCCCC1 [Dalcetrapib (JTT-705, RO4607381)]",remaining activity at 3.75 µM,[1]; Well no.=8198,102%
same,remaining activity at 1.25 µM,[2]; Well no.=8198,102%
N#C[C@H](O[C@@H]1O[C@H](CO[C@@H]2O[C@H](CO)[C@@H](O)[C@H](O)[C@H]2O)[C@@H](O)[C@H](O)[C@H]1O)c1ccccc1 [Amygdalin],remaining activity at 3.75 µM,[1]; Well no.=3472,102%
same,remaining activity at 1.25 µM,[2]; Well no.=3472,100%
Cn1cc(C(F)(F)F)nc1-c1ccc(OCC(O)CNCCOc2ccc(O)c(C(N)=O)c2)cc1 (stereo not drawn) [CGP 20712A methanesulfonate],remaining activity at 3.75 µM,[1]; Well no.=585,106%
same,remaining activity at 1.25 µM,[2]; Well no.=585,105%
